# From patent publication US20110098177A1, “METHODS AND COMPOSITIONS OF PLANT MICRONUTRIENTS” (NOVUS INTERNATIONAL INC., priority 2006, published 2011)
# Read-outs that look alike come from different tables or passages of the source.
# Legend:
# Type in all cases: in vivo
# [1] = test system: soybean plants (Asgrow 1102); assay: Soybean seed protein and oil content (Examples 11-12); details: in %
# Description: (§1) The following experiments were performed on soybean plants growing in open-field plots during the summer and fall of 2008 at two production fields in West Central Minnesota. […] Trial design was a randomized complete block with 4 replications. Each plot measured 10' by 30' and consisted of five 22'' rows. Although all five rows of each plot were treated, only the center three rows (25' in length) of each plot were machine harvested. The two fields selected for these studies had historical Iron Deficiency Chlorosis (IDC) issues. The two field sites were planted by farmers with elite Roundup Ready commodity type soybean varieties with IDC tolerance (Asgrow 1102, Monsanto Corp.). […] BIOX-M was applied at a rate of 1.12 kg Mn/ha. […] All V4 treatments were applied in 10 gallons per acre of water with a backpack sprayer with a hand boom designed to “band” apply product directly to the plant row. Three nozzles with ConeJet TXVS-2 tips were oriented on either side and over the top of each row. This maximized the applied product to the plant tissue itself and minimized application of product to the soil surface. […] The V6 treatments (where applicable) were applied in 20 gallons per acre of water to increase the suspension of the BIOX products. Soybean seed was harvested after soybean maturity was reached (3 October at […], and 17 Oct. 2008 at Foxhome) and seed yields for each experimental treatment group were determined. In addition, seed samples from each treatment were dried to 13% moisture content, then analyzed for protein and oil content.
# [2] = test system: soybean plants (Asgrow 1102); assay: Soybean seed yield (Examples 11-12)
# Description: as §1
# Tygress tomato plants [3] = assay: Yields of tomato fruits, greenhouse spring 2009 (Examples 13-15)
# How it was run: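 Greenhouse 'Tygress' tomatoes in micronutrient-deficient medium received foliar Cu/Fe source treatments at 6 WAT (200 mL/plant, deionized water plus non-ionic surfactant). Marketable fruit was harvested three times from 10 WAT and graded by size. RCBD, 6 replications, GLM with LSD at 5%.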
# Tygress tomato plants [4] = details: for Toxicity (0-10): 0=no injury, 10=plant death
# How it was run: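 Greenhouse 'Tygress' tomatoes in micronutrient-deficient medium received foliar micronutrient treatments at 6 weeks after transplanting, 200 mL/plant in deionized water with non-ionic surfactant. Foliar injury rated visually 0 (none) to 10 (plant death); randomized complete block, 6 replications, LSD at 5%.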
# [5] = test system: soybean plants (Asgrow 1102); assay: ICP-MS micronutrient content of soybean trifoliates (Examples 11-12); parameters: Micronutrient content from ICP-MS analysis: Mn: unit not given here; details: for Micronutrient content from ICP-MS analysis: Fe: in ppm (unit assumed)
# Description: The following experiments were performed on soybean plants growing in open-field plots during the summer and fall of 2008 at two production fields in West Central Minnesota. […] Trial design was a randomized complete block with 4 replications. Each plot measured 10' by 30' and consisted of five 22'' rows. Although all five rows of each plot were treated, only the center three rows (25' in length) of each plot were machine harvested. The two fields selected for these studies had historical Iron Deficiency Chlorosis (IDC) issues. The two field sites were planted by farmers with elite Roundup Ready commodity type soybean varieties with IDC tolerance (Asgrow 1102, Monsanto Corp.). […] BIOX-M was applied at a rate of 1.12 kg Mn/ha. […] All V4 treatments were applied in 10 gallons per acre of water with a backpack sprayer with a hand boom designed to “band” apply product directly to the plant row. Three nozzles with ConeJet TXVS-2 tips were oriented on either side and over the top of each row. This maximized the applied product to the plant tissue itself and minimized application of product to the soil surface. […] The V6 treatments (where applicable) were applied in 20 gallons per acre of water to increase the suspension of the BIOX products. […] The harvested plants were dried, ground, and subjected to Inductively Coupled Plasma-Mass Spectrometry (ICP-MS) analysis to determine plant micronutrient content.
# [6] = BIOX-Cu at 0.46 and 0.55 lb/acre, Cu-sulfate at 0.8 lb/acre, BIOX-EDC at 0.4 lb/acre
molecule,measurement,setting,value
Fe-HMTBA [BIOX-Fe],Oil content (13% moisture),"[1]; 0.558 kg/ha, V4, V6, Foxhome",18.42
same,Protein content (13% moisture),"[1]; 0.558 kg/ha, V4, V6, Foxhome",32.73
same,Oil content (13% moisture),"[1]; 0.558 kg/ha, V4, V6, Renville",20.16
same,Protein content (13% moisture),"[1]; 0.558 kg/ha, V4, V6, Renville",32.04
same,Oil content (13% moisture),"[1]; 0.558 kg/ha, V4, Foxhome",18.46
same,Protein content (13% moisture),"[1]; 0.558 kg/ha, V4, Foxhome",32.60
same,Oil content (13% moisture),"[1]; 0.558 kg/ha, V4, Renville",20.12
same,Protein content (13% moisture),"[1]; 0.558 kg/ha, V4, Renville",31.93
same,Oil content (13% moisture),"[1]; 1.12 kg/ha, V4, V6, Foxhome",18.40
same,Protein content (13% moisture),"[1]; 1.12 kg/ha, V4, V6, Foxhome",32.68
same,Oil content (13% moisture),"[1]; 1.12 kg/ha, V4, V6, Renville",20.10
same,Protein content (13% moisture),"[1]; 1.12 kg/ha, V4, V6, Renville",32.36
same,Oil content (13% moisture),"[1]; 1.12 kg/ha, V4, Foxhome",18.48
same,Protein content (13% moisture),"[1]; 1.12 kg/ha, V4, Foxhome",32.47
same,Oil content (13% moisture),"[1]; 1.12 kg/ha, V4, Renville",20.28
same,Protein content (13% moisture),"[1]; 1.12 kg/ha, V4, Renville",32.23
same,Yield,"[2]; 0.558 kg/ha, V4, V6, Foxhome",46.01 Bu/A
same,Yield,"[2]; 0.558 kg/ha, V4, V6, Renville",27.65 Bu/A
same,Yield,"[2]; 0.558 kg/ha, V4, Foxhome",43.17 Bu/A
same,Yield,"[2]; 0.558 kg/ha, V4, Renville",27.92 Bu/A
same,Yield,"[2]; 1.12 kg/ha, V4, V6, Foxhome",43.43 Bu/A
same,Yield,"[2]; 1.12 kg/ha, V4, V6, Renville",26.62 Bu/A
same,Yield,"[2]; 1.12 kg/ha, V4, Foxhome",44.23 Bu/A
same,Yield,"[2]; 1.12 kg/ha, V4, Renville",27.43 Bu/A
same,"Marketable tomato yields compared to non-treated control, statement","Tygress tomato plants [3]; BIOX-Fe at all levels, Fe-sulfate at 2.0 lb/acre, BIOX-EDF at 0.3 lb/acre",significantly higher marketable tomato yields than the non-treated control
same,Marketable yield,Tygress tomato plants [3]; Fe 0.28 lb/acre,1750 g/plant
same,Marketable yield,Tygress tomato plants [3]; Fe 0.57 lb/acre,1900 g/plant
same,Marketable yield,Tygress tomato plants [3]; Fe 1.12 lb/acre,2100 g/plant
same,Marketable yield,Tygress tomato plants [3]; Fe 1.74 lb/acre,1900 g/plant
same,Marketable yield,Tygress tomato plants [3]; Fe 2.3 lb/acre,2400 g/plant
same,Toxicity (0-10),Tygress tomato plants [4]; Fe 0.28 lb/acre,0
same,Toxicity (0-10),Tygress tomato plants [4]; Fe 0.57 lb/acre,0
same,Toxicity (0-10),Tygress tomato plants [4]; Fe 1.12 lb/acre,1
same,Toxicity (0-10),Tygress tomato plants [4]; Fe 1.74 lb/acre,1
same,Toxicity (0-10),Tygress tomato plants [4]; Fe 2.3 lb/acre,2
same,"Toxicity relative to the non-treated control, statement","Tygress tomato plants [4]; all levels of BIOX-Fe, Fe-sulfate at 2.0 lb/acre, BIOX-EDF at 0.3 lb/acre",no increased toxicity relative to the non-treated control
same,Micronutrient content from ICP-MS analysis: Mn,"[5]; 0.558 kg/ha, V4, V6, Foxhome",76.21
same,Micronutrient content from ICP-MS analysis: Fe,"[5]; 0.558 kg/ha, V4, V6, Foxhome",88.30
same,Micronutrient content from ICP-MS analysis: Mn,"[5]; 0.558 kg/ha, V4, V6, Renville",96.44
same,Micronutrient content from ICP-MS analysis: Fe,"[5]; 0.558 kg/ha, V4, V6, Renville",96.26
same,Micronutrient content from ICP-MS analysis: Mn,"[5]; 0.558 kg/ha, V4, Foxhome",81.82
same,Micronutrient content from ICP-MS analysis: Fe,"[5]; 0.558 kg/ha, V4, Foxhome",83.38
same,Micronutrient content from ICP-MS analysis: Mn,"[5]; 0.558 kg/ha, V4, Renville",88.29
same,Micronutrient content from ICP-MS analysis: Fe,"[5]; 0.558 kg/ha, V4, Renville",98.39
same,Micronutrient content from ICP-MS analysis: Mn,"[5]; 1.12 kg/ha, V4, V6, Foxhome",87.67
same,Micronutrient content from ICP-MS analysis: Fe,"[5]; 1.12 kg/ha, V4, V6, Foxhome",83.35
same,Micronutrient content from ICP-MS analysis: Mn,"[5]; 1.12 kg/ha, V4, V6, Renville",89.00
same,Micronutrient content from ICP-MS analysis: Fe,"[5]; 1.12 kg/ha, V4, V6, Renville",98.74
same,Micronutrient content from ICP-MS analysis: Mn,"[5]; 1.12 kg/ha, V4, Foxhome",72.70
same,Micronutrient content from ICP-MS analysis: Fe,"[5]; 1.12 kg/ha, V4, Foxhome",84.93
same,Micronutrient content from ICP-MS analysis: Mn,"[5]; 1.12 kg/ha, V4, Renville",76.15
same,Micronutrient content from ICP-MS analysis: Fe,"[5]; 1.12 kg/ha, V4, Renville",97.42
"CSCCC(O)C(=O)[O-].CSCCC(O)C(=O)[O-].[Cu+2] (centres unmarked) [BIOX-Cu, Cu-HMTBA]","Marketable tomato yields compared to non-treated control, statement",Tygress tomato plants [3]; [6],did not alter marketable yields relative to the non-treated control
same,"Marketable tomato yields compared to non-treated control, statement",Tygress tomato plants [3]; BIOX-Cu at the 0.14 and 0.28 lb/acre levels,significantly increased marketable tomato yields
same,Marketable yield,Tygress tomato plants [3]; Cu 0.14 lb/acre,2350 a g/plant
same,Marketable yield,Tygress tomato plants [3]; Cu 0.28 lb/acre,2500 a g/plant
same,Marketable yield,Tygress tomato plants [3]; Cu 0.46 lb/acre,1250 b g/plant
same,Marketable yield,Tygress tomato plants [3]; Cu 0.55 lb/acre,1700 b g/plant
same,"Toxicity compared to non-treated control plants, statement",Tygress tomato plants [4]; [6],increased levels of toxicity
same,Toxicity (0-10),Tygress tomato plants [4]; Cu 0.14 lb/acre,0
same,Toxicity (0-10),Tygress tomato plants [4]; Cu 0.28 lb/acre,1
same,Toxicity (0-10),Tygress tomato plants [4]; Cu 0.46 lb/acre,5
same,Toxicity (0-10),Tygress tomato plants [4]; Cu 0.55 lb/acre,6
same,"Toxicity, statement",Tygress tomato plants [4]; the two low levels of BIOX-Cu (0.14 and 0.28 lb/acre),no toxic effects
"CSCCC(O)C(=O)[O-].CSCCC(O)C(=O)[O-].[Mn+2] (centres unmarked) [BIOX-M, Mn-HMTBA]",Oil content (13% moisture),"[1]; 7.0 kg/ha, V4, Foxhome",18.28
same,Protein content (13% moisture),"[1]; 7.0 kg/ha, V4, Foxhome",32.90
same,Oil content (13% moisture),"[1]; 7.0 kg/ha, V4, Renville",19.97
same,Protein content (13% moisture),"[1]; 7.0 kg/ha, V4, Renville",31.97
same,Yield,"[2]; 7.0 kg/ha, V4, Foxhome",43.63 Bu/A
same,Yield,"[2]; 7.0 kg/ha, V4, Renville",24.15 Bu/A
same,Micronutrient content from ICP-MS analysis: Mn,"[5]; 7.0 kg/ha, V4, Foxhome",78.31
same,Micronutrient content from ICP-MS analysis: Fe,"[5]; 7.0 kg/ha, V4, Foxhome",90.52
same,Micronutrient content from ICP-MS analysis: Mn,"[5]; 7.0 kg/ha, V4, Renville",88.64
same,Micronutrient content from ICP-MS analysis: Fe,"[5]; 7.0 kg/ha, V4, Renville",99.40
